The values below come from US12351570B2 (MERCK PATENT GMBH, priority 2018, dated 2025).

One experiment concerns MDA-MB-231 cells. The experiment can be described thus: Extracellular lactate production inhibition after 4 h, MDA-MB-231. The following applies: Homo sapiens.
Another experiment concerns SNU398 cells. The experiment can be described thus: Extracellular lactate production inhibition after 4 h, SNU398. The following applies: Homo sapiens, SNU-398, read-out: IC50 (SNU-398).
A further experiment has as its system MIA PaCa-2 cells. Briefly: Extracellular lactate production inhibition after 4 h, MIA PaCa-2. The following applies: Homo sapiens, MIA PaCa-2, read-out: IC50 (MiaPACa).
Where [1] appears, read: MDA-MB-231, read-out: IC50 (MDA-MB231).

As a reminder, the IC50 is the concentration needed to halve the response being measured.

Molecules are shown by their SMILES. Read-outs that look alike come from different tables or passages of the source.

Procedure for MIA PaCa-2 cells: (§1) Extracellular Lactate Production Inhibition after 4 h
(§2) Cells were plated in growth media supplemented with 10% FBS, followed by overnight recovery at 37° C., 5% CO2. […] Plates were then moved for 4 h incubation at 37° C., 5% CO2 with subsequent 20 μl media transfer to empty 384-well transparent plates. […] Plates were short-spun and measured kinetically in absorbance mode (530 nm, 12 min measurement time with 2-minute intervals between subsequent readouts at 30° C.). Differences in the signal between T8 min and T0min were normalized to vehicle (cells w/ 0.25% DMSO) and quasi-positive (LCIS buffer w/ 0.25% DMSO) controls and plotted against logarithmically-transformed test compound concentrations with fitting the 4-parameter model in GraphPad Prism software.
Procedure for SNU398 cells: as §1, §2

With `Cc1ccc2cccnc2c1S(=O)(=O)Nc1ccccc1C#Cc1cnc(C(=O)O)c2ccccc12` [Compound 208, 4-{2-[2-(7-methylquinoline-8-sulfonamido)phenyl]ethynyl}isoquinoline-1-carboxylic acid], the IC50 with MDA-MB-231 cells (MDA-MB-231) is 0.1 to 1 µM; in the experiment with MDA-MB-231 cells (setting [1]) it was less than 1 µM; in the experiment with SNU398 cells it was less than 1 µM; in the experiment with MIA PaCa-2 cells, less than 1 µM. In the case of `COc1ccc(S(=O)(=O)Nc2ccccc2C#Cc2ccc(C(=O)N(C)C)nc2)c2ncccc12` [Compound 217], the IC50 in the experiment on MDA-MB-231 cells (MDA-MB-231) is 1 to 100 µM; in the experiment on MDA-MB-231 cells (setting [1]), less than 1 µM; in the experiment on SNU398 cells, less than 1 µM; in the experiment with MIA PaCa-2 cells it was less than 1 µM. In the experiment on MDA-MB-231 cells (MDA-MB-231), `O=C(O)c1ccc(C#Cc2ccccc2NS(=O)(=O)N2CCC3CCCCC3C2)cn1` (stereo not drawn) [Compound 103, 5-(2-{2-[(decahydroisoquinoline-2-sulfonyl)amino]phenyl}ethynyl)pyridine-2-carboxylic acid] had an IC50 of 0.1 to 1 µM. On the same count and under the same terms, then `COc1cc(C(=O)O)ncc1C#Cc1cc(Br)ccc1NS(=O)(=O)c1c(C)ccc2cccnc12` [Compound 352, 5-{2-[5-bromo-2-(7-methylquinoline-8-sulfonamido)phenyl]ethynyl}-4-methoxypyridine-2-carboxylic acid], with 0.001 to 0.01 µM; and `O=CN(CCc1cccc2ccccc12)c1ccccc1C#Cc1ccc(C(=O)O)nc1` [Compound 200, 5-[2-(2-{N-[2-(naphthalen-1-yl)ethyl]-formamido}phenyl)ethynyl]pyridine-2-carboxylic acid], with 0.1 to 1 µM; and `COC(=O)c1ncc(C#Cc2cc(F)ccc2NS(=O)(=O)c2cccc(OC)c2)cc1C` [Compound 321, methyl 5-{2-[5-fluoro-2-(3-methoxy-benzenesulfonamido)phenyl]ethynyl}-3-methylpyridine-2-carboxylate], with 1 to 100 µM. Still for that read-out and setting: then `CCc1cc(C#Cc2ccccc2NS(=O)(=O)c2ccc(OC)c3cccnc23)cnc1C(=O)O` [Compound 451, 3-Ethyl-5-[2-(5-methoxy-quinoline-8-sulfonylamino)-phenylethynyl]-pyridine-2-carboxylic acid], with 0.01 to 0.1 µM; and `CCNc1ccnc2c(S(=O)(=O)Nc3ccccc3C#Cc3ccc(C(=O)O)nc3)cccc12` [Compound 426, 5-[2-(4-Ethylamino-quinoline-8-sulfonylamino)-phenylethynyl]-pyridine-2-carboxylic acid], with 1 to 100 µM. Still for that read-out and setting: then `O=C(O)c1ccc(C#Cc2cc(F)ccc2NS(=O)(=O)c2cccc3ccccc23)cc1` [Compound 68, 4-{2-[5-fluoro-2-(naphthalene-1-sulfonamido)phenyl]ethynyl}benzoic acid], with 0.1 to 1 µM; and `Cc1cccc(C#Cc2ccc(C(=O)O)cc2)c1NS(=O)(=O)c1ccc2ccccc2c1` [Compound 64, 4-{2-[3-methyl-2-(naphthalene-2-sulfonamido)phenyl]ethynyl}benzoic acid], with 1 to 100 µM; and `COc1cc(C(=O)O)ncc1C#Cc1ccccc1NS(=O)(=O)c1ccc(OC)c2cccnc12` [Compound 169, 4-methoxy-5-{2-[2-(5-methoxyquinoline-8-sulfonamido)phenyl]ethynyl}pyridine-2-carboxylic acid], with 0.01 to 0.1 µM. On to `CCOc1cc(C#Cc2ccccc2NS(=O)(=O)c2c(C)ccc3cccnc23)cnc1C(=O)O` [Compound 188, 3-ethoxy-5-{2-[2-(7-methylquinoline-8-sulfonamido)phenyl]ethynyl}pyridine-2-carboxylic acid], for which the IC50 in the experiment with MDA-MB-231 cells (MDA-MB-231) lay within 0.1 to 1 µM.

`O=C(O)c1ncc(C#Cc2ccccc2NS(=O)(=O)c2cccc3ccccc23)cc1F` [Compound 279, 3-fluoro-5-{2-[2-(naphthalene-1-sulfon-amido)phenyl]ethynyl}pyridine-2-carboxylic acid]: the 50% inhibitory concentration (IC50) with MDA-MB-231 cells (MDA-MB-231) lay within 1 to 100 µM. On the same count and under the same terms, for `CCNc1cc(C#Cc2ccccc2NS(=O)(=O)c2ccc(OC)c3cccnc23)cnc1C(=O)O` [Compound 376, 3-(ethylamino)-5-{2-[2-(5-methoxyquinoline-8-sulfonamido)phenyl]ethynyl}pyridine-2-carboxylic acid] the value was 0.001 to 0.01 µM; for `COc1ccc(S(=O)(=O)Nc2ccccc2C#Cc2ccc(C(=O)O)nc2)c2ccccc12` [Compound 31, 5-{2-[2-(4-methoxynaphthalene-1-sulfonamido)phenyl]ethynyl}pyridine-2-carboxylic acid], 0.1 to 1 µM; for `Cc1ccc2cccnc2c1S(=O)(=O)Nc1ccccc1C#Cc1ccc(C(=O)OCC2COC(C)(C)O2)nc1` (stereo not drawn) [Compound 404, (2,2-dimethyl-1,3-dioxolan-4-yl)methyl 5-{2-[2-(7-methylquinoline-8-sulfonamido)phenyl]ethynyl}pyridine-2-carboxylate], 0.1 to 1 µM. Still for that read-out and setting: then `Cc1cc(C#Cc2cc(F)ccc2NS(=O)(=O)c2c(C)ccc3cccnc23)cnc1C(=O)O` [Compound 307, 5-{2-[5-fluoro-2-(7-methylquinoline-8-sulfonamido)phenyl]ethynyl}-3-methylpyridine-2-carboxylic acid], with 0.01 to 0.1 µM; and `O=C(O)c1ccc(C#Cc2ccccc2S(=O)(=O)Nc2cccc3ccccc23)cn1` [Compound 450, 5-(2-{2-[(naphthalen-1-yl)sulfamoyl]phenyl}ethynyl)pyridine-2-carboxylic acid], with 1 to 100 µM; and `N#Cc1cc(C#Cc2ccccc2NS(=O)(=O)c2ccc3ccccc3c2)ccc1C(=O)O` [Compound 24, 2-cyano-4-{2-[2-(naphthalene-2-sulfonamido)phenyl]ethynyl}benzoic acid], with 1 to 100 µM.

For the compound `COc1cc(C(=O)O)ncc1C#Cc1cc(Br)c(F)cc1NS(=O)(=O)c1c(C)ccc2cccnc12` [Compound 353, 5-{2-[5-bromo-4-fluoro-2-(7-methylquinoline-8-sulfonamido)phenyl]ethynyl}-4-methoxypyridine-2-carboxylic acid], the IC50 in the experiment with MDA-MB-231 cells (MDA-MB-231) was 0.01 to 0.1 µM. Still for that read-out and setting: then `COc1cc(C#Cc2ccccc2NS(=O)(=O)c2c(C)ccc3cccnc23)c(C)cc1C(=O)O` [Compound 365, 2-methoxy-5-methyl-4-{2-[2-(7-methylquinoline-8-sulfonamido)-phenyl]ethynyl}benzoic acid], with 0.1 to 1 µM. The same measure, in the same setting: then `O=C(O)c1ccc(C#Cc2ccccc2NS(=O)(=O)N2CCc3ccccc32)cn1` [Compound 126, 5-(2-{2-[(2,3-dihydro-1H-indole-1-sulfonyl)amino]phenyl}ethynyl)pyridine-2-carboxylic acid], with 0.1 to 1 µM. `Cc1ccc2cccc(S(=O)(=O)Nc3ccccc3C#Cc3cnc(C(=O)O)c4ccccc34)c2n1` [Compound 444, 4-{2-[2-(2-methylquinoline-8-sulfonamido)phenyl]ethynyl}iso-quinoline-1-carboxylic acid]: the IC50 in the experiment with MDA-MB-231 cells (MDA-MB-231) lay in the range of 1 to 100 µM.

As for `O=C(O)c1ccc(C#Cc2ccccc2NS(=O)(=O)C2Cc3ccccc3C2)cc1` [Compound 93, 4-{2-[2-(2,3-dihydro-1H-indene-2-sulfonamido)phenyl]ethynyl}benzoic acid], the IC50 in the experiment with MDA-MB-231 cells (MDA-MB-231) was 1 to 100 µM.

Regarding `COC(=O)c1ncc(C#Cc2cc(F)ccc2NS(=O)(=O)c2ccc3c(c2)oc2ccccc23)cc1C` [Compound 318, methyl 5-[2-(5-fluoro-2-{8-oxatricyclo[7.4.0.0^2,7]trideca-1(9),2(7),3,5,10,12-hexaene-5-sulfonamido}phenyl)ethynyl]-3-methylpyridine-2-carboxylate], the IC50 in the experiment on MDA-MB-231 cells (MDA-MB-231) fell in the range of 1 to 100 µM.

For the compound `Cc1cc(C)c2cccnc2c1S(=O)(=O)Nc1ccccc1C#Cc1cnc(C(=O)O)c2ccccc12` [Compound 446, 4-{2-[2-(5,7-dimethylquinoline-8-sulfonamido)phenyl]ethynyl}iso-quinoline-1-carboxylic acid], in the experiment with MDA-MB-231 cells (MDA-MB-231), the IC50 fell in the range of 0.1 to 1 µM. Turning to `COCCOC(=O)c1cc(OC)c(C#Cc2ccccc2NS(=O)(=O)c2c(C)ccc3cccnc23)cn1` [Compound 412, 2-methoxyethyl 4-methoxy-5-{2-[2-(7-methylquinoline-8-sulfonamido)phenyl]ethynyl}pyridine-2-carboxylate], in the experiment with MDA-MB-231 cells (MDA-MB-231), the IC50 fell in the range of 0.01 to 0.1 µM.
